In patent publication US8076352B2, “Administration of carboline derivatives useful in the treatment of cancer and other diseases” (PTC Therapeutics, Inc., priority 2004, dated 2011):

These compounds were tested on hypoxia-inducible endogenous VEGF expression in HeLa cells (assay: Hypoxia-inducible endogenous VEGF expression, VEGF ELISA of conditioned media (dose-response EC50)). Details: HeLa cells under hypoxic conditions.
Assay type: cell-based
Experimental: The ability of the compounds of the invention to modulate hypoxia-inducible endogenous VEGF expression may be analyzed as follows. VEGF protein levels may be monitored by an ELISA assay (R&D Systems). Briefly, HeLa cells may be cultured for 24-48 hours under hypoxic conditions (1% O2, 5% CO2, balanced with nitrogen) in the presence or absence of a compound of the invention. The conditioned media may then be assayed by ELISA, and the concentration of VEGF calculated from the standard ELISA curve of each assay.
A dose-response analysis may be performed using the ELISA assay and conditions described above. The conditions for the dose-response ELISA are analogous to those described above. A series of, e.g., seven different concentrations may be analyzed. […] Dose-response curves may be plotted using percentage inhibition versus concentration of the compound, and EC50 and CC50 values may be generated for each compound with the maximal inhibition set as 100% and the minimal inhibition as 0%.

EC50 [nM]	SMILES
> 1000	Clc1ccc2[nH]c3c(c2c1)CCN(Cc1ccccc1)C3C1CCOC1 (centres unmarked) [Compound 264]

Same assay, conditions: HeLa cells, hypoxic conditions (1% O2)

SMILES	EC50 [nM]
O=C(Oc1ccc(Cl)cc1)N1CCc2c([nH]c3ccc(Cl)cc23)C1c1ccc(S(=O)(=O)N2CCOCC2)cc1 (centres unmarked) [Compound 450]	8 to 40
CN(C)CCCOc1ccc(C2c3[nH]c4ccc(Cl)cc4c3CCN2C(=O)Oc2ccc(Cl)cc2)cc1 (centres unmarked) [Compound 479]	40 to 200

Same assay, conditions: Homo sapiens, HeLa cells under hypoxic conditions

EC50 [nM]	SMILES
40 to 200	CCOC(=O)N1CCc2c([nH]c3ccc(Cl)cc23)C1c1cccc(O)c1 (centres unmarked) [Compound 165]
< 8	Cc1ccc(C2c3[nH]c4ccc(Br)cc4c3CCN2C(=O)Oc2ccc(Cl)cc2)cc1 (centres unmarked) [Compound 353]
40 to 200	Brc1ccc(C2NCCc3c2[nH]c2ccc(Br)cc32)cc1 (centres unmarked) [Compound 157]
< 8	CCOC(=O)N1CCc2c([nH]c3ccc(Br)cc23)C1c1ccc(C)cc1 (centres unmarked) [#8]
200 to 1000	COCC(=O)N1CCc2c([nH]c3ccc(Br)cc23)C1c1cccc(Cl)c1 (centres unmarked) [Compound 218]
8 to 40	O=C(Oc1ccc(Cl)cc1)N1CCc2c([nH]c3ccc(Cl)cc23)C1c1ccc2c(c1)OCO2 (centres unmarked) [Compound 349]
40 to 200	CC(=O)N1CCc2c([nH]c3ccc(Br)cc23)C1c1ccc(C)cc1 (centres unmarked) [Compound 131]
> 1000	COc1ccc(C2NCCc3c2[nH]c2ccc(Cl)cc32)cc1 (centres unmarked) [Compound 231]
> 1000	Oc1ccc(Cl)cc1C1NCCc2c1[nH]c1ccc(Br)cc21 (centres unmarked) [Compound 381]
200 to 1000	CC(C)Oc1ccc(C2NCCc3c2[nH]c2ccc(Cl)cc32)cc1 (centres unmarked) [Compound 224]
< 8	COC(=O)c1ccc(C2c3[nH]c4ccc(Cl)cc4c3CCN2C(=O)Oc2ccc(F)cc2)cc1 (centres unmarked) [Compound 395]
8 to 40	CCOC(=O)N1CCc2c([nH]c3ccc(Cl)cc23)C1c1cccc(F)c1 (centres unmarked) [Compound 51]
> 1000	Fc1ccc2[nH]c3c(c2c1)CCNC3c1ccc(Cl)cc1Cl (centres unmarked) [Compound 257]
< 8	Cc1ccc(C2c3[nH]c4ccc(Cl)cc4c3CCN2C(=O)OC(C)C)cc1 (centres unmarked) [Compound 36]
> 1000	CC(C)(C)c1cc(C2c3[nH]c4ccc(Cl)cc4c3CCN2Cc2ccccc2)cc(C(C)(C)C)c1O (centres unmarked) [Compound 263]
8 to 40	COc1cccc(C2c3[nH]c4ccc(Cl)cc4c3CCN2C(=O)OC(C)C)c1 (centres unmarked) [Compound 88]

EC50 [nM]	SMILES
8 to 40	CC(C)COC(=O)N1CCc2c([nH]c3ccc(Br)cc23)C1c1ccccc1 (centres unmarked) [Compound 67]
200 to 1000	Clc1ccc(C2NCCc3c2[nH]c2ccc(Br)cc32)cc1 (centres unmarked) [Compound 181]
> 1000	COc1ccc(C2c3[nH]c4ccc(C)cc4c3CCN2c2cnccn2)cc1 (centres unmarked) [Compound 343]
> 1000	Brc1ccc2[nH]c3c(c2c1)CCNC3Cc1ccccc1 (centres unmarked) [Compound 252]
> 1000	COc1ccc(C2c3[nH]c4ccc(Cl)cc4c3CCN2S(=O)(=O)c2ccccc2Cl)cc1 (centres unmarked) [Compound 372]
> 1000	c1ccc(COc2ccc3[nH]c4c(c3c2)CCNC4c2ccccc2)cc1 (centres unmarked) [Compound 303]
< 8	N#Cc1ccc(C2c3[nH]c4ccc(Cl)cc4c3CCN2C(=O)OCCCl)cc1 (centres unmarked) [Compound 12]
8 to 40	CCCOC(=O)N1CCc2c([nH]c3ccc(Cl)cc23)C1c1cccc(F)c1 (centres unmarked) [Compound 75]
40 to 200	CC(=O)N1CCc2c([nH]c3ccc(Br)cc23)C1c1ccc(Br)cc1 (centres unmarked) [Compound 129]
8 to 40	CCOC(=O)N1CCc2c([nH]c3ccc(Cl)cc23)C1c1cccc(Br)c1 (centres unmarked) [Compound 93]
8 to 40	ON1CCc2c([nH]c3ccc(Br)cc23)C1c1cccc(F)c1F (centres unmarked) [Compound 73]
40 to 200	COc1ccc(C2c3[nH]c4ccc(Cl)cc4c3CCN2C(=O)c2ccc(F)c(F)c2F)cc1 (centres unmarked) [Compound 373]
> 1000	Clc1ccc2[nH]c3c(c2c1)CCNC3C1CCCCC1 (centres unmarked) [Compound 287]
> 1000	Oc1ccc(C2NCCc3c2[nH]c2ccc(Cl)cc32)cc1 (centres unmarked) [Compound 296]
< 8	CCCOC(=O)N1CCc2c([nH]c3ccc(Cl)cc23)C1c1ccc(C(F)(F)F)cc1 (centres unmarked) [Compound 19]
200 to 1000	CCS(=O)(=O)N1CCc2c([nH]c3ccc(Cl)cc23)C1c1ccc(OC)cc1 (centres unmarked) [Compound 189]

SMILES	EC50 [nM]
O=C(O)C1Cc2c([nH]c3ccccc23)C(c2ccccc2)N1 (centres unmarked) [Compound 314]	> 1000

Same assay, conditions: Homo sapiens, HeLa cells, hypoxic conditions (1% O2)

SMILES	EC50 [nM]
O=C(Oc1ccc(Cl)cc1)N1CCc2c([nH]c3ccc(Cl)cc23)C1c1ccc(OCCCCCCN2CCCC2)cc1 (centres unmarked) [Compound 783]	< 8
O=C(Oc1ccc(Cl)cc1)N1CCc2c([nH]c3ccc(Cl)cc23)C1c1ccc(OCC(O)CN2CCCC2)cc1 (centres unmarked) [Compound 462]	8 to 40
O=C(Oc1ccc(F)cc1)N1CCc2c([nH]c3ccc(Cl)cc23)C1c1ccc(OCCCCCCNCCO)cc1 (centres unmarked) [Compound 772]	< 8
O=C(Oc1ccc(Cl)cc1)N1CCc2c([nH]c3ccc(Br)cc23)C1c1ccc(C(F)(F)F)cc1 (centres unmarked) [Compound 405]	< 8

More lines, now with the values ahead:

EC50 [nM]	SMILES
40 to 200	O=C(Oc1ccccc1Cl)N1CCc2c([nH]c3ccc(Cl)cc23)C1c1ccc(Cl)cc1 (centres unmarked) [Compound 589]
40 to 200	C=CC(=O)Nc1ccc(C2c3[nH]c4ccc(Cl)cc4c3CCN2C(=O)Oc2ccc(Cl)cc2)cc1 (centres unmarked) [Compound 500]
40 to 200	CCOC(=O)N1CCc2c([nH]c3ccc(Br)cc23)C1c1cnc(NC)nc1 (centres unmarked) [Compound 496]
40 to 200	CCOC(=O)N1CCc2c([nH]c3ccc(Cl)cc23)C1CCc1ccccc1 (centres unmarked) [Compound 511]
40 to 200	O=C(Oc1ccc(F)cc1)Oc1ccc(C2c3[nH]c4ccc(Cl)cc4c3CCN2C(=O)Oc2ccc(F)cc2)cc1 (centres unmarked) [Compound 576]
< 8	O=C(Oc1ccc(F)cc1)N1CCc2c([nH]c3ccc(Cl)cc23)C1c1ccc(OCC(O)CO)cc1 (centres unmarked) [Compound 627]
40 to 200	CCCC1c2[nH]c3ccc(Cl)cc3c2CCN1C(=O)OCC (centres unmarked) [Compound 510]
200 to 1000	COc1ccc(C2c3[nH]c4ccc(OCc5ccccc5)cc4c3CCN2C(=O)Oc2ccc(Cl)cc2)cc1 (centres unmarked) [Compound 616]
< 8	CCOC(=O)N1CCc2c([nH]c3ccc(Br)cc23)C1c1cnc(N(C)C)nc1 (centres unmarked) [Compound 435]
8 to 40	COc1ccc(C2c3[nH]c4ccc(Cl)cc4c3CCN2C(=O)Cc2ccc(Cl)cc2)cc1 (centres unmarked) [Compound 447]
> 1000	CCOC(=O)N1CCc2c([nH]c3ccc(Cl)cc23)C1c1cccc(CN2CCN(CCOC)CC2)c1 (centres unmarked) [Compound 567]
< 8	COCCOCCOc1ccc(C2c3[nH]c4ccc(Cl)cc4c3CCN2C(=O)Oc2ccccc2)cc1 (centres unmarked) [Compound 670]
8 to 40	CN(C)CCCOc1ccc(C2c3[nH]c4ccc(Cl)cc4c3CCN2C(=O)OCCF)cc1 (centres unmarked) [Compound 456]
200 to 1000	O=C(Oc1ccc(F)cc1)N1CCc2c([nH]c3ccc(Cl)cc23)C1c1ccc(O)cc1 (centres unmarked) [Compound 575]
40 to 200	CCOC(=O)N1CCc2c([nH]c3ccc(Br)cc23)C1c1ccc(C(=O)N2CCCN(C)CC2)cc1 (centres unmarked) [Compound 484]
200 to 1000	CCOC(=O)N1CCc2c([nH]c3ccc(Br)cc23)C1c1ccc(CNCCN2CCOCC2)cc1 (centres unmarked) [Compound 535]

Same assay, conditions: Homo sapiens, HeLa cells, hypoxic conditions (1% O2, 5% CO2)

EC50 [nM]	SMILES
< 8	COc1ccc(OC(=O)N2CCc3c([nH]c4ccc(Cl)cc34)C2c2ccc(OCCCn3ccnc3)cc2)cc1 (centres unmarked) [Compound 920]
< 8	Cc1cnc(NCCOc2ccc(C3c4[nH]c5ccc(Cl)cc5c4CCN3C(=O)Oc3ccc(F)cc3)cc2)s1 (centres unmarked) [#838]

SMILES	EC50 [nM]
CC(C)NCCCOc1ccc(C2c3[nH]c4ccc(Cl)cc4c3CCN2C(=O)Oc2ccc(Cl)cc2)cc1 (centres unmarked) [Compound 953]	8 to 40
